Test [1] has as its system HepG2. As to the kind of experiment: Hepatoprotective activity against aflatoxin B1 (10e-5 M) induced Hep G2 cells at a dose of 10 ug/ml. The class given is functional, Homo sapiens.
For test [2], the system named is HepG2. As to the kind of experiment: Hepatoprotective activity against aflatoxin B1 (10e-5 M) induced Hep G2 cells at a dose of 20 ug/ml. The class given is functional, Homo sapiens.

Take `CC1(C)C[C@@H](O)[C@]2(C)CC[C@]3(C)C(=CCC4[C@@]5(C)CC[C@H](O)[C@](C)(CO)C5CC[C@]43C)[C@@H]2C1` (stereo partly drawn): the Protection in test [1] came to 14%. Same read-out and setting: the result for `CO[C@@H]1[C@H](OC)C(C)(C)C[C@H]2C3=CCC4[C@@]5(C)CC[C@H](O)[C@](C)(CO)C5CC[C@@]4(C)[C@]3(C)CC[C@@]12C` (stereo partly drawn) reads 0%; that for `CC(=O)O[C@@H]1[C@H](OC(C)=O)C(C)(C)C[C@H]2C3=CCC4[C@@]5(C)CC[C@H](O)[C@](C)(CO)C5CC[C@@]4(C)[C@]3(C)CC[C@@]12C` (stereo partly drawn), 0%. Regarding `CC(=O)OC[C@]1(C)C2CC[C@]3(C)C(CC=C4[C@@H]5CC(C)(C)[C@@H](O)[C@@H](O)[C@]5(C)CC[C@]43C)[C@@]2(C)CC[C@@H]1OC(C)=O` (stereo partly drawn), the Protection in test [1] is 0%. Take `CC1(C)C[C@H]2C3=CCC4[C@@]5(C)CC[C@H](O)[C@](C)(CO)C5CC[C@@]4(C)[C@]3(C)CC[C@@]2(C)C(=O)[C@@H]1O` (stereo partly drawn): the Protection in test [1] stood at 107%. `CO[C@H]1[C@@H](O)[C@]2(C)CC[C@]3(C)C(=CCC4[C@@]5(C)CC[C@H](O)[C@](C)(CO)C5CC[C@]43C)[C@@H]2CC1(C)C` (stereo partly drawn): in test [1], the Protection was determined as 8%. On the same count and under the same terms, the value for `CO[C@@H]1[C@H](O)C(C)(C)C[C@H]2C3=CCC4[C@@]5(C)CC[C@H](O)[C@](C)(CO)C5CC[C@@]4(C)[C@]3(C)CC[C@@]12C` (stereo partly drawn) was 20%; that for `COC[C@]1(C)C2CC[C@]3(C)C(CC=C4[C@@H]5CC(C)(C)[C@@H](O)[C@@H](O)[C@]5(C)CC[C@]43C)[C@@]2(C)CC[C@@H]1OC` (stereo partly drawn) was 7%.

Take `CC(=O)O[C@H]1[C@@H](O)[C@]2(C)CC[C@]3(C)C(=CCC4[C@@]5(C)CC[C@H](O)[C@](C)(CO)C5CC[C@]43C)[C@@H]2CC1(C)C` (stereo partly drawn): in test [1], the Protection came to 25%. Still for that read-out and setting: the result for `CC1(C)C[C@H]2C3=CCC4[C@@]5(C)CC[C@H](O)[C@](C)(CO)C5CC[C@@]4(C)[C@]3(C)CC[C@@]2(C)C[C@@H]1O` (stereo partly drawn) reads 25%; that for `CC1(C)C[C@H]2C3=CC[C@@H]4[C@@]5(C)CC[C@H](O)[C@](C)(CO)[C@@H]5CC[C@@]4(C)[C@]3(C)CC[C@@]2(C)[C@@H](O)[C@H]1O`, 8%. The same measure, in the same setting: the value for `CC1(C)C[C@H]2C3=CC[C@@H]4[C@@]5(C)CC[C@H](O)[C@](C)(CO)[C@@H]5CC[C@@]4(C)[C@]3(C)CC[C@@]2(C)[C@@H](O)[C@@H]1O` was 0%; that for `CC1(C)C[C@H]2C3=CC[C@@H]4[C@@]5(C)CC[C@H](O)[C@](C)(CO)[C@@H]5CC[C@@]4(C)[C@]3(C)CC[C@@]2(C)[C@H](O)[C@H]1O` was 0%. With `CC1(C)C[C@H]2C3=CCC4[C@@]5(C)CC[C@H](O)[C@](C)(CO)C5CC[C@@]4(C)[C@]3(C)CC[C@@]2(C)CC1=O` (stereo partly drawn), the Protection in test [1] is 37%.

Regarding `CC1(C)C[C@H]2C3=CCC4[C@@]5(C)CC[C@H](O)[C@](C)(CO)C5CC[C@@]4(C)[C@]3(C)CC[C@@]2(C)C(=O)C1=O` (stereo partly drawn), the Protection in test [1] was determined as 131%. Consider `CC1(C)C[C@H]2C3=CCC4[C@@]5(C)CC[C@H](O)[C@](C)(CO)C5CC[C@@]4(C)[C@]3(C)CC[C@@]2(C)C[C@H]1O` (stereo partly drawn), for which, in test [1], the Protection was 0%. In turn, `CC1(C)[C@@H](O[C@H]2O[C@H](C(=O)O)[C@@H](O)[C@H](O)[C@H]2O[C@@H]2O[C@H](C(=O)O)[C@@H](O)[C@H](O)[C@H]2O)CC[C@]2(C)[C@H]3C(=O)C=C4[C@@H]5C[C@@](C)(C(=O)O)CC[C@]5(C)CC[C@@]4(C)[C@]3(C)CC[C@@H]12` [GLYCYRRHIZIN] returned a Protection in test [2] of 15%. The compound `CC1(C)C[C@H]2C3=CC[C@@H]4[C@@]5(C)CC[C@H](O)[C@](C)(CO)[C@@H]5CC[C@@]4(C)[C@]3(C)CC[C@@]2(C)[C@H](O)[C@@H]1O` [SOYASAPOGENOL A] gave a Protection in test [1] of 0%.

The record behind these values is ChEMBL document CHEMBL1131648, “Derivatization of soyasapogenol A and their hepatoprotective activities” (1998).
